# Measured values published in article PMC8689225, “Cardiac ryanodine receptor N-terminal region biosensors identify novel inhibitors via FRET-based high-throughput screening” (The Journal of Biological Chemistry, 2021).
# Where two headings read alike, the source gives them in different places.
# What was measured:
# mouse RyR2 NTR = biological target: T1, mouse RyR2 NTR (Mus musculus, UniProt E9Q401, K30C/K441C, form not given); assay: FLT-FRET dose-response with AC-NTR biosensor; format: binding; settings: for decrease of donor-only FLT as share of the FLT change in the donor-acceptor sample: interference control, designated interfering compounds; for saturation of FRET dose-response: decreased FLT; for saturation of FRET dose-response / ΔFLT: 0 to 100 μM; for ΔFLT: CPNQ/corbadrine decrease FLT, FA/tacrolimus increase FLT
# T1 sequence (E9Q401 1-547 K30C/K441C): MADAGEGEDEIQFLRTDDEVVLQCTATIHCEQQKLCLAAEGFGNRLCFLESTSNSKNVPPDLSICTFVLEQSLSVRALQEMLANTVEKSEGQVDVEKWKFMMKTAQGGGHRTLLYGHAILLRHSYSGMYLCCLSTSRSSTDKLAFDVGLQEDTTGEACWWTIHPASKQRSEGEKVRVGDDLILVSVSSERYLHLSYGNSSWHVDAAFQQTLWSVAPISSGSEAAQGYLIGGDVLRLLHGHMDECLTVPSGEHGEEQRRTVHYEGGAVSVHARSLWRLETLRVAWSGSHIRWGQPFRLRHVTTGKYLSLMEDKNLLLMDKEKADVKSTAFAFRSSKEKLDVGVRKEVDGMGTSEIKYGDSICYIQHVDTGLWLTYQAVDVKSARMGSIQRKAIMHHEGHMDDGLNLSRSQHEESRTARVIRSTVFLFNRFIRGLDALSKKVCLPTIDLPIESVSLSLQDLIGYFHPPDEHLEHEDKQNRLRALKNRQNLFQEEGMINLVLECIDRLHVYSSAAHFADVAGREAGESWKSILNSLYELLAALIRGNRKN
# Excerpt: The NTR of mouse RyR2 (residues 1–547) was cloned and expressed as previously described ([27]). The DNA construct contains a 6×His tag, a maltose-binding protein (MBP) tag, and a tobacco etch virus (TEV) protease cleavage site. The seven native solvent-exposed cysteine residues were substituted with alanine residues, and two constructs were engineered with Cys substitutions at surface residues R383 and K441 (in the B and C domains, respectively; termed BC) and at K30 and K441 (in the A and C domains, respectively; termed AC) for labeling with spectroscopic probes such as appropriate donor–acceptor fluorophores for FRET (for the purpose of this report, these are considered the WT forms of AC and BC). A variant of the BC construct corresponding to the disease-associated mutant (R420Q) was also prepared. For this site-directed mutagenesis work, we used the QuikChange (Stratagene) and Phusion High-Fidelity PCR (Thermo Fisher Scientific) kits. The WT-NTR, R420Q-NTR, AC- and BC-NTR, AC- and BC-R420Q-NTR protein constructs were expressed in Escherichia coli Rosetta (DE3) pLacI cells at 18 °C and purified with a protocol adapted from previously published work ([26]). An amylose column was first applied after the cells were lysed by ultrasonication. The protein in the elution was then cleaved using TEV protease. The cleaved crude protein went through the second amylose column to separate from the MBP and then followed by a Superdex S-200 size exclusion column in a buffer consisting of 250 mM KCl, 10 mM HEPES, and 14 mM β-mercaptoethanol (pH 7.4). The NTR protein (3 μM) was then incubated in 10 mM HEPES, 250 mM KCl (pH 7.4, 2 h, 21 °C) with the fluorescent probes Alexa Fluor 488 maleimide (AF488, donor; 40 μM) and Alexa Fluor 568 maleimide (AF568, acceptor; 60 μM). The maleimide of the dye reacts with the thiols the Cys residues engineered into NTR, forming a covalently labeled protein. The Alexa dyes were added last to the reaction mixture, from 10 mM DMSO stock solutions. This reaction is not selective to one site (K30C or K441C), and we anticipate that there is a mixed population with K30C or K441C labeled with either AF488 (donor) or AF568 (acceptor). We focused on maximizing the fraction containing donor–acceptor pairs, thus maximizing FRET efficiency and the precision for detecting a change in structure as an indication that a compound interacts with the NTR biosensor. The labeling efficiency was determined by comparing the molar concentration of the bound dye, determined from UV-Vis absorbance, to the protein concentration, determined from gel densitometry. Essentially complete labeling was confirmed from electrospray ionization mass spectrometry. CD spectra of the WT-NTR and mutant R420Q-NTR constructs before and after labeling were recorded using a JASCO J-815 CD spectrometer (JASCO), confirming similar folding (Fig. S1).
# The 1536-well assay plates were prepared as described in our previous reports ([21]). The LOPAC (Sigma-Aldrich) collection received in 96-well plates was reformatted into 384-well polypropylene intermediate plates (Greiner Bio-One) using a multichannel liquid handler, BioMek FX (Beckman Coulter), then transferred to 384-well Echo Qualified source plates (Labcyte Inc). Assay plates were prepared as previously described ([20]). On screening days, these plates were thawed out and were loaded with labeled NTR (5 μl, 20 nM final concentration) using a Multidrop Combi automated sample dispenser.
# HTS measurements were conducted in a prototype top-read FLT plate reader (FLT-PR, Fluorescence Innovations, Inc), which reads each 1536-well plate in ∼3 min ([63], [64]). AF488 donor fluorescence was excited with a 473 nm microchip laser from Concepts Research Corporation, and the emission signal was split into two channels by a dichroic mirror and acquired with 517 ± 10 nm (channel 1) and 535 ± 7 nm band-pass filters (channel 2) (Semrock). […]
# RyR = system: RyR; parameters: method as in PMID 27760856, PMID 32019969; settings: cited from earlier work
# RyR1 = biological target: T2, RyR1 (Sus scrofa, UniProt P16960); assay: [3H]ryanodine binding to skeletal SR (HSR) vesicles; format: biochemical, pig; settings: for EC50: Table S4, read-out: EC50, [3H]ryanodine binding, skeletal HSR; for maximum inhibitory effect on [3H]ryanodine binding / effect on [3H]ryanodine binding to RyR1: skeletal SR; for maximum inhibitory effect on [3H]ryanodine binding: 30 nM Ca2+; for effect on [3H]ryanodine binding to RyR1: 30 μM Ca2+
# T2 construct: from tissue; host or cells: porcine longissimus dorsi muscle, heavy SR vesicles
# Description: (§1) Crude sarcoplasmic reticulum membrane vesicles were isolated from porcine longissimus dorsi muscle and porcine cardiac left ventricle tissue by differential centrifugation of homogenized tissue, as established previously ([65]). Skeletal heavy SR (HSR) vesicles, which are enriched with RyR1, were isolated by fractionation of crude skeletal SR vesicles using a discontinuous sucrose gradient, in accordance with our published work ([65]). All vesicles were flash-frozen and stored at −80 °C.
# (§2) In 96-well plates, skeletal SR membranes (HSR, 1 mg/ml) and cardiac SR membranes (CSR, 3 mg/ml) were preincubated with 1% DMSO or hit compound for 30 min at 22 °C in a solution containing 150 mM KCl, 5 mM GSH, 1 μg/ml Aprotinin/Leupeptin, 1 mM EGTA, and 65 μM or 1.02 mM CaCl2 (as determined by MaxChelator to yield 30 nM or 30 μM of free Ca^2+, respectively), 0.1 mg/ml of BSA, and 20 mM K-PIPES (pH 7.0). Nonspecific [^3H]ryanodine binding to SR was assessed by addition of 40 μM nonradioactively labeled ryanodine. Maximal [^3H]ryanodine binding was assessed by addition of 5 mM adenylyl-imidodiphosphate (AMP-PNP), and in the case of CSR, 20 mM caffeine was added. These control samples were each loaded over four wells per plate. Binding of [^3H]ryanodine (7.5 and 10 nM for CSR and HSR, respectively) was determined following a 3 h incubation at 37 °C and filtration through grade GF/B glass microfiber filters (Brandel Inc) using a Brandel Harvester. In 4 ml of Ecolite scintillation cocktail (MP biomedicals), [^3H]ryanodine retained on the filter was counted using a Beckman LS6000 scintillation counter.
# RyR2 = biological target: T3, RyR2 (Sus scrofa, UniProt A0A5G2R1W3); assay: [3H]ryanodine binding to cardiac SR (CSR) vesicles; format: biochemical, pig; settings: for effect on [3H]ryanodine binding to RyR2: cardiac SR; for EC50: Table S4, read-out: EC50, [3H]ryanodine binding, cardiac SR
# T3 construct: from tissue; host or cells: porcine cardiac left ventricle, crude SR vesicles
# Description: as §1, §2
# [1] = AC-NTR biosensor, Hill fit, Table S4, read-out: EC50, FRET dose-response
# T3 sequence (A0A5G2R1W3 20-4900): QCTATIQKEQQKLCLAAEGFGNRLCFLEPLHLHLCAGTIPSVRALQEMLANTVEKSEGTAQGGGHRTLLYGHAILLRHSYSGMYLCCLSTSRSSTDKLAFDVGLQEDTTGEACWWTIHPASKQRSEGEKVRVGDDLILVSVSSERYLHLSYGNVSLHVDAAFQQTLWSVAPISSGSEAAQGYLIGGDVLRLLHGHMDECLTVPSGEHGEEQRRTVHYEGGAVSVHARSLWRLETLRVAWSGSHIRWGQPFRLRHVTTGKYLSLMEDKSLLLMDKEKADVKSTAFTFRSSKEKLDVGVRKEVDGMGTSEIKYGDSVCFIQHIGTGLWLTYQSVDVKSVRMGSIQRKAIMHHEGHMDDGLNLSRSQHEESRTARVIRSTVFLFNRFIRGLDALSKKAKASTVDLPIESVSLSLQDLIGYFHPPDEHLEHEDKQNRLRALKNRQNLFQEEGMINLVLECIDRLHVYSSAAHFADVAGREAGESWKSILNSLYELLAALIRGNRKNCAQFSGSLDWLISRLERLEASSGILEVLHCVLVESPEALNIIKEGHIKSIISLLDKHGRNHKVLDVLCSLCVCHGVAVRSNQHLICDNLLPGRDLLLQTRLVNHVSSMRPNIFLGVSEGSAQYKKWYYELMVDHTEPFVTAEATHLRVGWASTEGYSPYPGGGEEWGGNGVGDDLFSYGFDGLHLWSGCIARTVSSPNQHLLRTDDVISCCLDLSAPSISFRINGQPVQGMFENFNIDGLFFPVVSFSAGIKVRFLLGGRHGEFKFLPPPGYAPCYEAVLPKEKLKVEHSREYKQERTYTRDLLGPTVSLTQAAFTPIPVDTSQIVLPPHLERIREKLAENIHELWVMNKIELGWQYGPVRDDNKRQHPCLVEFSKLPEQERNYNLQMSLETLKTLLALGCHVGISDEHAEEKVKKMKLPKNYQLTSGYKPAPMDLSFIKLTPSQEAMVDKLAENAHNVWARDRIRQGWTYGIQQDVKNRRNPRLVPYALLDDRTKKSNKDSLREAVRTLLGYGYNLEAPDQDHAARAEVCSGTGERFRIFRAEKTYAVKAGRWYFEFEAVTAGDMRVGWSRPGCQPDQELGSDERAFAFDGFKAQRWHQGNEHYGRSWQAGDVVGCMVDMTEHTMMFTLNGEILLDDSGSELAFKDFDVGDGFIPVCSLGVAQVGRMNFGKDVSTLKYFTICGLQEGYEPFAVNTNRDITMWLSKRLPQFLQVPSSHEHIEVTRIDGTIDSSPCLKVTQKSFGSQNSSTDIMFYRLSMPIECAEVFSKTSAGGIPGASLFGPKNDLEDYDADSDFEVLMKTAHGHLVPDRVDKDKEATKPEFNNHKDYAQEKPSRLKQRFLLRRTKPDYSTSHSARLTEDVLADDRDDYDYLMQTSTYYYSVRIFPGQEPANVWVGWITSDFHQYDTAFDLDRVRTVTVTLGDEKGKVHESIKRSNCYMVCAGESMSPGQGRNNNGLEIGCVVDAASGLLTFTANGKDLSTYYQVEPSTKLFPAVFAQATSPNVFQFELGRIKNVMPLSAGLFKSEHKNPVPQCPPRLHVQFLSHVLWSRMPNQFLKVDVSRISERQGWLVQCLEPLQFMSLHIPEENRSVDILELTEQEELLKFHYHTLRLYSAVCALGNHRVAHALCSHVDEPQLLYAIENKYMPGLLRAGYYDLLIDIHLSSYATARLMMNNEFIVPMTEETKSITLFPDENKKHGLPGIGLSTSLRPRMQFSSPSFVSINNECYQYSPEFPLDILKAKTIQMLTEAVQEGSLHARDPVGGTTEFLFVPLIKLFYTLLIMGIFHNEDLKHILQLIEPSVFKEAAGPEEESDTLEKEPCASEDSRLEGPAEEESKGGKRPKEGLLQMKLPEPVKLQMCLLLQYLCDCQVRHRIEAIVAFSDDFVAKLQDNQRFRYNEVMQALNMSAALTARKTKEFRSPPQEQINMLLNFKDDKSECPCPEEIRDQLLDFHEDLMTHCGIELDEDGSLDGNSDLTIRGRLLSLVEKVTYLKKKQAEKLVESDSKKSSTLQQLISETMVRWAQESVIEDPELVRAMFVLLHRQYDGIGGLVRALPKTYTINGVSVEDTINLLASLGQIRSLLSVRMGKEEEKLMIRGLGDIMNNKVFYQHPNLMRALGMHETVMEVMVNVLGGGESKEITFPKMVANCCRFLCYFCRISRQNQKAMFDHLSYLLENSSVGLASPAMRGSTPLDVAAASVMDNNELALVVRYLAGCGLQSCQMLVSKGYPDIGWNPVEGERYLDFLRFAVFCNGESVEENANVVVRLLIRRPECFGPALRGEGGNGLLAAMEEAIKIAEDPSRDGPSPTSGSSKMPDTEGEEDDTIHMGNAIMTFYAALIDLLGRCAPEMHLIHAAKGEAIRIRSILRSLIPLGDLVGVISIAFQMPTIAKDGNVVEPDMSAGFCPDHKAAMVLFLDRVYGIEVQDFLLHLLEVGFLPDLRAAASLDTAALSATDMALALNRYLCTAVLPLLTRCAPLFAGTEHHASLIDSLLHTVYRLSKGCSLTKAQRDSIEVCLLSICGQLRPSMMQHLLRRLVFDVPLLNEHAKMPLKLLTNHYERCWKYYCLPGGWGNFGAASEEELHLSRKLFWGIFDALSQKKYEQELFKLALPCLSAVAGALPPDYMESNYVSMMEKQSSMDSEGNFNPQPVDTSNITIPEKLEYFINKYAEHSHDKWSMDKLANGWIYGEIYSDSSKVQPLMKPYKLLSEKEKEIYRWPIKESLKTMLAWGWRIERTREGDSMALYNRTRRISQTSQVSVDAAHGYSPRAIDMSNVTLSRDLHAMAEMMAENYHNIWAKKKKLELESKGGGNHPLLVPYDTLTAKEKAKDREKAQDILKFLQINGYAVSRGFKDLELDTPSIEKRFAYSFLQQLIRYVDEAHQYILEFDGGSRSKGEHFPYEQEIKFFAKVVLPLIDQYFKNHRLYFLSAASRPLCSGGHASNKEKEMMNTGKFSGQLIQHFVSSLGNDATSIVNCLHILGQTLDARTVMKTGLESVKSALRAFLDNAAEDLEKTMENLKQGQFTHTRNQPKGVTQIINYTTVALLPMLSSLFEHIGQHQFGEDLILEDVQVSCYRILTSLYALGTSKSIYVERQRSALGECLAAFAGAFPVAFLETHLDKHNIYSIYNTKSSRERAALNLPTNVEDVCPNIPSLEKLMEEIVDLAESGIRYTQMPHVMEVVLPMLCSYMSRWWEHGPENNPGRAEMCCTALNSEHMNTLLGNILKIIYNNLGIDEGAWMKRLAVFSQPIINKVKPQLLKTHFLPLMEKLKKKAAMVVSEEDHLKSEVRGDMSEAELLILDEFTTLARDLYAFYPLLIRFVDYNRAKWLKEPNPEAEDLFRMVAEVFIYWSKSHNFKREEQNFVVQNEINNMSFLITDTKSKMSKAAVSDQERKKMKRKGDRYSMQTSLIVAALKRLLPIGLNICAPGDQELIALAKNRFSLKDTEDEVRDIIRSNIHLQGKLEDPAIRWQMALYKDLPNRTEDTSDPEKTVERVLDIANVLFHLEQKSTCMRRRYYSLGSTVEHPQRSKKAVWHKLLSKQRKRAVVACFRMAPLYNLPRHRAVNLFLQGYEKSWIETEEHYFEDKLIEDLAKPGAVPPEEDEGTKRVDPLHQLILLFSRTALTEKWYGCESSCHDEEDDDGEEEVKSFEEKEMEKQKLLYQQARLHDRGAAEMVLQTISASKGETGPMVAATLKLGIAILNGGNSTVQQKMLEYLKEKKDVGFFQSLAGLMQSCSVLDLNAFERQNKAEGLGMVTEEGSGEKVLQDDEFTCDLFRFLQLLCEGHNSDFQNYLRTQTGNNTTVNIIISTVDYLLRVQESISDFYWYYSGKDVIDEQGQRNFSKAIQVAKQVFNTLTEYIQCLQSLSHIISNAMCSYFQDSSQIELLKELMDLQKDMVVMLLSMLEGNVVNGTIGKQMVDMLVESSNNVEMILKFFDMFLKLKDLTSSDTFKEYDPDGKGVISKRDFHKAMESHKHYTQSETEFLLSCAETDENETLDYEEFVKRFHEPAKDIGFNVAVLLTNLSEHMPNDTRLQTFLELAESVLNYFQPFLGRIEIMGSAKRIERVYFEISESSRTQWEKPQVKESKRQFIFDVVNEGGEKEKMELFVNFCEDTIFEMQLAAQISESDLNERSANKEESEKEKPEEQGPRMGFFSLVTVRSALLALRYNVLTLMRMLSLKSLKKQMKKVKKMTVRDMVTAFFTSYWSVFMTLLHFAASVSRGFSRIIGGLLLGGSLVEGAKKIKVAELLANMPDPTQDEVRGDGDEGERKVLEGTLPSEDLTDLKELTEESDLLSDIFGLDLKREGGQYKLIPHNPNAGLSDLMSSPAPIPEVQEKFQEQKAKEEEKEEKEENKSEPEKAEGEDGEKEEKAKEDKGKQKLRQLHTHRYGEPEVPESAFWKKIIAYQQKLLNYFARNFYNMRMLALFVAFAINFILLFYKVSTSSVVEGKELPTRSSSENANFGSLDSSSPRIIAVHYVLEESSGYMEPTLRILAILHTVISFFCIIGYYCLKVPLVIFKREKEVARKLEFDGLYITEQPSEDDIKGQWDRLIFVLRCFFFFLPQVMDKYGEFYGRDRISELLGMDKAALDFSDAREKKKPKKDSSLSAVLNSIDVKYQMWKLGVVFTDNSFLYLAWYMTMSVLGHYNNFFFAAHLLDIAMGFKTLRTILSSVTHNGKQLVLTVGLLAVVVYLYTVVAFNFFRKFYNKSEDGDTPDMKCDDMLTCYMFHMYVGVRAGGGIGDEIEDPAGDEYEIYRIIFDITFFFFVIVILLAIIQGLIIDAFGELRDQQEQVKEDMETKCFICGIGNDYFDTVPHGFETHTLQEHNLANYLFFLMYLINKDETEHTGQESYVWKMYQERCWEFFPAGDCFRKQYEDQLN
smiles,measurement,setting,value
"CO[C@H]1C[C@@H]2CC[C@@H](C)[C@@](O)(O2)C(=O)C(=O)N2CCCC[C@H]2C(=O)O[C@H]([C@H](C)C[C@@H]2CC[C@@H](OC(=O)C(C)(CO)CO)[C@H](OC)C2)CC(=O)[C@H](C)/C=C(\C)[C@@H](O)[C@@H](OC)C(=O)[C@H](C)C[C@H](C)/C=C/C=C/C=C/1C [temsirolimus, (1R,2R,4S)-4-{(2R)-2-[(3S,6R,7E,9R,10R,12R,14S,15E,17E,19E,21S,23S,26R,27R,34aS)-9,27-dihydroxy-10,21-dimethoxy-6,8,12,14,20,26-hexamethyl-1,5,11,28,29-pentaoxo-1,4,5,6,9,10,11,12,13,14,21,22,23,24,25,26,27,28,29,31,32,33,34,34a-tetracosahydro-3H-23,27-epoxypyrido[2,1-c][1,4]oxazacyclohentriacontin-3-yl]propyl}-2-methoxycyclohexyl 3-hydroxy-2-(hydroxymethyl)-2-methylpropanoate]",EC50,"mouse RyR2 NTR; read-out: EC50 (FRET dose-response), hits that increased FLT",< 1000 nM
CC/C(=C(\c1ccccc1)c1ccc(OCCN(C)C)cc1)c1ccccc1 [tamoxifen],decrease of donor-only FLT as share of the FLT change in the donor-acceptor sample,mouse RyR2 NTR,> 50%
"Nc1ccc(-c2nc3ccc(-c4nc5ccc(N)cc5[nH]4)cc3[nH]2)cc1 [Ro 90-7501, 2'-(4-Aminophenyl)-1H,1'H-2,5'-bibenzimidazol-5-amine]",effect on RyR,RyR,inhibitory
same,EC50,"mouse RyR2 NTR; hits that increased FLT, read-out: EC50 (FRET dose-response)",< 1000 nM
"CSc1c(C)c(SC)n2ccncc12 [oltipraz M2, 7-Methyl-6,8-bis(methylthio)-pyrrolo[1,2-a]pyrazine]",EC50,RyR1; [Ca2+] 30 nM,5 nM
same,maximum inhibitory effect on [3H]ryanodine binding,RyR1,~50%
same,effect on [3H]ryanodine binding to RyR1,RyR1,only slightly affected
same,effect on [3H]ryanodine binding to RyR2,RyR2; 30 nM Ca2+,almost no effect
same,effect on [3H]ryanodine binding to RyR2,RyR2; 30 μM Ca2+,did not significantly alter
same,EC50,mouse RyR2 NTR; [1],21700 nM
same,saturation of FRET dose-response,mouse RyR2 NTR,did not reach saturation within the tested concentration range
"O=C(c1ccc(Cl)cc1)N1CCN(c2ccc([N+](=O)[O-])c3ncccc23)CC1 [CPNQ, 5-[4-(4-Chlorobenzoyl)-1-piperazinyl]-8-nitroquinoline]",EC50,RyR1; [Ca2+] 30 nM,20 nM
same,maximum inhibitory effect on [3H]ryanodine binding,RyR1,approximately 30%
same,effect on [3H]ryanodine binding to RyR1,RyR1,only slightly affected
same,EC50,RyR2; [Ca2+] 30 nM,20 nM
same,effect on [3H]ryanodine binding to RyR2,RyR2; 30 nM Ca2+,inhibitory trend
same,effect on [3H]ryanodine binding to RyR2,RyR2; 30 μM Ca2+,did not significantly alter
same,ΔFLT,mouse RyR2 NTR; AC-NTR biosensor,≈ 0.35 ns
same,EC50,mouse RyR2 NTR; [1],1300 nM
COc1ccc(/C=C/c2nc(NCCCN(C)C)c3ccccc3n2)cc1 [CP-31398],decrease of donor-only FLT as share of the FLT change in the donor-acceptor sample,mouse RyR2 NTR,> 50%
"C=CC[C@@H]1/C=C(\C)C[C@H](C)C[C@H](OC)[C@H]2O[C@@](O)(C(=O)C(=O)N3CCCC[C@H]3C(=O)O[C@H](/C(C)=C/[C@@H]3CC[C@@H](O)[C@H](OC)C3)[C@H](C)[C@@H](O)CC1=O)[C@H](C)C[C@@H]2OC [tacrolimus, (3S,4R,5S,8R,9E,12S,14S,15R,16S,18R,19R,26aS)-5,19-dihydroxy-3-{(1E)-1-[(1R,3R,4R)-4-hydroxy-3-methoxycyclohexyl]prop-1-en-2-yl}-14,16-dimethoxy-4,10,12,18-tetramethyl-8-(prop-2-en-1-yl)-5,6,8,11,12,13,14,15,16,17,18,19,24,25,26,26a-hexadecahydro-3H-15,19-epoxypyrido[2,1-c][1,4]oxazacyclotricosine-1,7,20,21(4H,23H)-tetrone]",effect on RyR,RyR,activatory
same,ΔFLT,mouse RyR2 NTR; AC-NTR biosensor,≈ 0.1 ns
"CN(C)c1ccccc1CN1CCCN(Cc2ccccc2N(C)C)C1c1ccncc1 [GANT61, 2-[[3-[[2-(dimethylamino)phenyl]methyl]-2-pyridin-4-yl-1,3-diazinan-1-yl]methyl]-N,N-dimethylaniline]",EC50,RyR1; [Ca2+] 30 nM,4 nM
same,EC50,"RyR1; [Ca2+], 30 µM",9400 nM
same,maximum inhibitory effect on [3H]ryanodine binding,RyR1,~50%
same,effect on [3H]ryanodine binding to RyR1,RyR1,gradual inhibition at concentrations >1 μM
same,EC50,RyR2; [Ca2+] 30 nM,4 nM
same,EC50,"RyR2; [Ca2+], 30 µM",17300 nM
same,effect on [3H]ryanodine binding to RyR2,RyR2; 30 μM Ca2+,inhibitor at concentration >1 μM
same,EC50,mouse RyR2 NTR; [1],15800 nM
same,saturation of FRET dose-response,mouse RyR2 NTR,did not reach saturation within the tested concentration range
